Assays:
[1] = Superoxide radical scavenging activity (NBT method); type: biochemical; conditions: riboflavin/NBT, 560 nm
Description: Superoxide radical scavenging activity of test substances was determined by the method of McCord and Fridovich (J. Biol. Chem., 244, 6049, 1969). The assay mixture contained EDTA (6.6 mM containing 3 μg NaCN), riboflavin (2 μM), NBT (50 μM), phosphate buffer (67 mM, pH 7.8) in a final volume of 3 mL and various concentrations of test substances. The tubes were mixed well and optical densities were measured at 560 nm. The tubes were uniformly illuminated with an incandescent lamp for 15 min. and the optical densities were measured again at 560 nm. The percentage inhibition of superoxide radical generation was measured by comparing the absorbance values of control and those of the test substances. The IC50 values were obtained from the plot drawn of the concentration (μg) verses percentage inhibition.

[2] = DPPH free radical scavenging activity; type: biochemical; conditions: methanolic DPPH solution
Description: DPPH free radical scavenging activity was measured by the method of Lamaison, et al., (Pharma Acta Helv. 1991; 66:185) based on the reduction of colored methanolic solution of the DPPH. Free radical scavenging ability of each test substances added to the methanolic solution of DPPH was inversely proportional to the difference in initial and final absorption of DPPH solution at […] Antioxidant activity is expressed as the 50% inhibitory concentration (IC50). The reaction mixture contained 1×10^−4 mM methanolic solution of DPPH and various concentrations of the test substances. Percentage inhibition was determined by comparing the absorbance values of test and control tubes. The IC50 values were obtained from the plot drawn of the concentration (μg) verses percentage inhibition.

[3] = test system: Freund Complete Adjuvant induced arthritis; assay: Freund Complete Adjuvant induced arthritis model, paw edema; type: in vivo, Sprague Dawley rats; conditions: prednisolone 10 mg/kg body weight for 14 days, positive control; vs CMC control
Description: The anti-inflammatory efficacies of α-mangostin and γ-mangostin were evaluated by an in vivo study in Freund Complete Adjuvant induced arthritis model of Sprague Dawley rats. The rats of either sex were randomly selected and divided into […] containing five animals in each group. The treatment group rats were supplemented with 25 mg/kg body weight of α-mangostin or γ-mangostin, or prednisolone (10 mg/kg body weight) for 14 days. The animals of control group received similar volume of 1% CMC only. At the 14 th day, Freund Complete Adjuvant (FCA) was injected subcutaneously in the sub-plantar region of the left hind paw of each animal. At the end of experiment, the animals were sacrificed and liver tissue samples were excised and stored in aliquot at −80° C. Blood samples were collected from each animal at a regular interval and paw volumes were measured by Plethysmography equipment at the day of FCA injection and after 13 days of FCA inoculation. The difference in volume of edema at the day of FCA injection and at 13th day after induction is considered as the inflammatory response. The in vivo anti-inflammatory response of α-mangostin, γ-mangostin and prednisolone was estimated by calculating the percentage of inhibition of paw edema when compared with the CMC supplemented control.

potato 5-lipoxygenase = assay: 5-Lipoxygenase enzyme inhibitory activity; type: biochemical; conditions: 80 μM linoleic acid, pH 6.3, absorbance 234 nm
Description: 5-Lipoxygenase enzyme inhibitory activity was measured using the method of Schewe, et. al. (Adv Enzymol, Vol 58: pp 191-272, 1986), that was modified by Reddanna, et. al., (Methods of Enzymology, Vol 187: pp 268-277, 1990). The assay mixture contained 80 μM linoleic acid and sufficient amount of potato 5-lipoxygenase in 50 mM phosphate buffer (pH 6.3). The reaction was initiated by the addition of enzyme buffer mix to linoleic acid and the enzyme activity was monitored as the increase in absorbance at 234 nm. The reaction was monitored for 120 sec and the inhibitory potential of the test substances was measured by incubating various concentrations of test substances α-mangostin and γ-mangostin two minutes before the addition of linoleic acid. All assays were performed three times. The IC50 values were calculated from the plot drawn of the concentrations of test substances versus percentage inhibition.

[4] = test system: aP2 (Adipocyte fatty acid binding protein); assay: Down-regulation of aP2 protein expression in LPS induced THP-1 derived macrophages (Western blot); type: cell-based, human; conditions: 5 μg/ml pre-treatment 2 h, LPS 100 ng/ml 16 h, normalized with actin
Description: Down-regulation of aP2 protein expression by γ-mangostin and α-mangostin was evaluated in a cell based in vitro model. Briefly, equal number of THP-1 monocyte cells were plated in 40 mm tissue culture petri-dishes and the cells were differentiated to macrophages by treatment with 10 nM Phorbol myristate acetate (PMA) for 24 h. The attached cells in the culture dishes were washed with serum free and phenol red free DMEM; and the differentiated macrophage cells were pre-treated for 2 h with 5 μg/ml of either γ-mangostin or α-mangostin or 0.1% DMSO in serum free DMEM supplemented with 2% BSA. Thereafter, the cells were primed with 100 ng/ml of LPS for 16 h to induce the inflammatory response. The 0.1% DMSO treated cells without LPS treatment were considered as vehicle control. […] The protein content was measured by Coomassie blue based Bradford method and equal amount of cellular protein lysates (2 μg) was resolved in 15% SDS-Polyacrylamide gels. […] The aP2 protein expression was specifically detected by chemiluminescent substrate (Pierce, USA); detection of chemiluminescent bands and densitometric analyses were carried out on Kodak 4000 MM image station (supplied by Kodak, USA). The same nitrocellulose blots were stripped and re-probed with anti-actin antibody (Sigma Chemical CO, USA) and actin protein expression was recorded as an indication of equal protein loading in each, lane. […]

IKK = conditions: Biochem. Pharmacol. reference; cited from earlier work

Row | Structure (SMILES) | NBT method IC50 [1] [µg/mL] | DPPH method IC50 [2] [µg/mL] | inhibition of paw edema [3] [%] | 5-Lipoxygenase inhibitory activity IC50 values (potato 5-lipoxygenase) [µg/mL] | inhibition of aP2 protein expression [4] | inhibition of IKK activity (IKK)
1 | O=C1O[C@H]([C@@H](O)CO)C(O)=C1O [Vitamin C] | 123.6 | 3.7 |  |  |  | 
2 | C[C@]12C=CC(=O)C=C1CC[C@@H]1[C@@H]2[C@@H](O)C[C@@]2(C)[C@H]1CC[C@]2(O)C(=O)CO [prednisolone] |  |  | 54 |  |  | 
3 | COc1c(O)cc2oc3cc(O)c(CC=C(C)C)c(O)c3c(=O)c2c1CC=C(C)C [α-Mangostin, 1,3,6-trihydroxy-7-methoxy-2,8-bis-(3-methyl-but-2-only) -xanthen-9-one] | 61.8 | >100 |  | 2.7 | inhibition of aP2 protein expression | 
4 | CC(C)=CCc1c(O)cc2oc3cc(O)c(O)c(CC=C(C)C)c3c(=O)c2c1O [γ-Mangostin, 2,8-bis[(2E)-3-methylbut-2-only)-1,3,6,7-tetrahydroxyxanthen-9-one] | 8.7 | 9.7 |  | 0.5 | more potent inhibitor of aP2 in vitro compared to α-mangostin | directly inhibits IKK activity
